Measured values reported in US20130096100A1, “DI(ARYLAMINO)ARYL COMPOUND” (ASTELLAS PHARMA INC., priority 2007, published 2013).

Assays:
Type in all cases: biochemical
[1] = target: T1, MUSK (Homo sapiens, UniProt O15146); assay: Inhibitory activity against the kinase activity of MUSK protein (Test Example 7); design: purchased Carna Biosciences Inc., Japan; conditions: ATP 10 μM, reaction 1 hour, HTRF KinEASE-TK
T1 sequence (O15146 24-869): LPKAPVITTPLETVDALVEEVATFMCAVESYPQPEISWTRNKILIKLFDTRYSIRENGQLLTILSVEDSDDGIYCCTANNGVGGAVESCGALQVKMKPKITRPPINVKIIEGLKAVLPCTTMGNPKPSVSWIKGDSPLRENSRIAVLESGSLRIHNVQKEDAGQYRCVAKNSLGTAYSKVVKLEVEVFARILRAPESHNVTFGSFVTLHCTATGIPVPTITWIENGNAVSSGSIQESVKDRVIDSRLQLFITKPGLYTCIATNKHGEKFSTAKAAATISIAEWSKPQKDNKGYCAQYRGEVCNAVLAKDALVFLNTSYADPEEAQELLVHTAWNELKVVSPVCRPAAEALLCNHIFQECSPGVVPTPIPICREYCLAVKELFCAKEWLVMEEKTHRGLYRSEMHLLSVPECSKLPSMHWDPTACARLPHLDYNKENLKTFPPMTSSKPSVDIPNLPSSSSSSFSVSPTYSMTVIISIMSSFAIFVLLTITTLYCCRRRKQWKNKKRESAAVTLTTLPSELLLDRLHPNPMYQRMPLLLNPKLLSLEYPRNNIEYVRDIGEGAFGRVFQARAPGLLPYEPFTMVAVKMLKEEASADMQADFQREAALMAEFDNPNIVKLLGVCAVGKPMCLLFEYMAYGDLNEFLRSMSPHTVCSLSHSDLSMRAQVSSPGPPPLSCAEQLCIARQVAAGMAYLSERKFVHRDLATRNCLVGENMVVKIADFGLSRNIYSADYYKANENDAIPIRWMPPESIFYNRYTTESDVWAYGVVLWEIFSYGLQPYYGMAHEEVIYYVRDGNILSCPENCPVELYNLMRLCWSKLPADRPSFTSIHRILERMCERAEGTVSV
Experimental: (§1) MUSK protein (Carna Biosciences Inc., Japan) was investigated for its phosphorylation activity toward a peptide substrate by using a kinase activity detection kit (HTRF KinEASE-TK; Cisbio Inc.). […] The ATP concentration used was 10 μM. Another reaction solution was prepared to contain the enzyme protein but no test compound (in which the solvent DMSO alone was added at 0.4% in place of the test compound), followed by reaction in the same manner with or without ATP addition. […] The concentration causing 50% inhibition (IC50) was calculated for each test compound by the logistic regression method.

[2] = target: T2, Mutant EGFR (L858R) protein (Homo sapiens, UniProt P00533, L858R); assay: Inhibitory activity against the kinase activity of mutant EGFR (L858R) protein (Test Example 2); conditions: ATP 5 μM, reaction 1 hour, HTRF KinEASE-TK
T2 construct: purchased Cana Biosciences Inc., Japan (sic; Carna Biosciences)
T2 sequence (P00533 25-1210 L858R): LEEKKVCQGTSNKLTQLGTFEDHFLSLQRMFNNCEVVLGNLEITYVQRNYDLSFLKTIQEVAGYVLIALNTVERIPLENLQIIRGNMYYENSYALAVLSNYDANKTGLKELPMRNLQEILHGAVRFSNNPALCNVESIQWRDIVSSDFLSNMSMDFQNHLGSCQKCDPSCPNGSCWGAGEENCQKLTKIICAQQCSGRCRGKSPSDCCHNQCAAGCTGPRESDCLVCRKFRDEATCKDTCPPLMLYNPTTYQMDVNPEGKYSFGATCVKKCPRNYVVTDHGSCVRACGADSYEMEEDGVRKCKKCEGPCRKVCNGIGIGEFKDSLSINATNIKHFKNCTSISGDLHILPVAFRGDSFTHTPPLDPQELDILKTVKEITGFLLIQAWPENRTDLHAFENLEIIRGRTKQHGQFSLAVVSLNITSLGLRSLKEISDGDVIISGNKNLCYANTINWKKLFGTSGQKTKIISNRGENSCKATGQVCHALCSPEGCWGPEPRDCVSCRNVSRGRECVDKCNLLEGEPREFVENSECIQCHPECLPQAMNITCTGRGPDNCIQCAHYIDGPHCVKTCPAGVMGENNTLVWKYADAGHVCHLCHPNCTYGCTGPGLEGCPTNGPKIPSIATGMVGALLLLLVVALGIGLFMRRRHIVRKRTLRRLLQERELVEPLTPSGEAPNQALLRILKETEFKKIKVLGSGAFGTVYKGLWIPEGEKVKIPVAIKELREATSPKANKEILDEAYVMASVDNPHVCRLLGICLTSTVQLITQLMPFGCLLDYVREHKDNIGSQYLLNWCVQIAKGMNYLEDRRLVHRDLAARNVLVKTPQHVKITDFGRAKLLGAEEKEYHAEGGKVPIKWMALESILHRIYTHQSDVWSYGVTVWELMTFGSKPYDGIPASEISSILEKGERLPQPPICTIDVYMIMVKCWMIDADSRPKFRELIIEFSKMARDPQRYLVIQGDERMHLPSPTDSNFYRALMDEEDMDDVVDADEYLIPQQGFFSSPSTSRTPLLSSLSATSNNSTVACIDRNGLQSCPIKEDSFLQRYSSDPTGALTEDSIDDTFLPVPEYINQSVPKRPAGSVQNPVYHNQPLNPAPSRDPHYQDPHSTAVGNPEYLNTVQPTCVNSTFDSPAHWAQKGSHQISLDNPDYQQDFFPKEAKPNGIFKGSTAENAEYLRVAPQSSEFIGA
Experimental: The ATP concentration used was 5 μM. Another reaction solution was prepared to contain the enzyme protein but no test compound (in which the solvent DMSO alone was added at 0.4% in place of the test compound), followed by reaction in the same manner with or without ATP addition. […] The concentration causing 50% inhibition (IC50) was calculated for each test compound by the logistic regression method.

[3] = target: T3, EML4-ALK fusion protein v1 (Homo sapiens, UniProt Q9UM73, D1529E/I1461V/K1491R); assay: Inhibitory activity against the kinase activity of EML4-ALK fusion protein v1 (Test Example 1); conditions: ATP 100 μM, reaction 1 hour, HTRF KinEASE-TK
T3 construct: FLAG (N); made in house
T3 sequence (Q9UM73 with tags, fused parts or gaps I1461V/K1491R/D1529E): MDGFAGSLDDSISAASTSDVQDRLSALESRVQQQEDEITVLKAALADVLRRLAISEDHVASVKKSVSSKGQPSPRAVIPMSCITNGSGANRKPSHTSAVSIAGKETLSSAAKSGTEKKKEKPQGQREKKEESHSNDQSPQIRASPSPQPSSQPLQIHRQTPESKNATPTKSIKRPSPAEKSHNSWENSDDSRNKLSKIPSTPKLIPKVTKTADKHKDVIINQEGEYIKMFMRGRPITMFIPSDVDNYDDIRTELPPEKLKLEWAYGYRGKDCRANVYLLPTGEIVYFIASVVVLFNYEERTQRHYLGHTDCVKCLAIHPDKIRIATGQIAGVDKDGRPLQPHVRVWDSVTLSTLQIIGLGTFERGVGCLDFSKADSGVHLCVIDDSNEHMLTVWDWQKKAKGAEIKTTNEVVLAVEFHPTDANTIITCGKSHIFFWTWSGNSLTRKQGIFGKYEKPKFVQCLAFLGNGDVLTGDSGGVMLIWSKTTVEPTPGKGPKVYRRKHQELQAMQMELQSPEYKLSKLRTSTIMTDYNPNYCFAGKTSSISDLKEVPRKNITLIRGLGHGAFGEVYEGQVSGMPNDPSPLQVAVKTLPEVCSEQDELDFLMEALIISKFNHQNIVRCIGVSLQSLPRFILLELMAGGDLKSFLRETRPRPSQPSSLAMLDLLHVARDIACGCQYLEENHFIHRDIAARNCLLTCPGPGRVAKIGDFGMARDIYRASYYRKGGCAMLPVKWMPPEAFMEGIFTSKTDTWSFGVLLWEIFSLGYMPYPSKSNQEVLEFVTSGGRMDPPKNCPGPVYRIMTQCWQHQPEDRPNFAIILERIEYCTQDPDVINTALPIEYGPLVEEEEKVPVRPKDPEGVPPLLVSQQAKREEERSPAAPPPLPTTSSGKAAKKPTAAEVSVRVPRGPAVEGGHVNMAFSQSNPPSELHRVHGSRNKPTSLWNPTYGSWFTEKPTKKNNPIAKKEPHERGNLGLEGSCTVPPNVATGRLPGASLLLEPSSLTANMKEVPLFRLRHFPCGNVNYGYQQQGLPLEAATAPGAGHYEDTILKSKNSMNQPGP
Experimental: as §1, with “EML4-ALK fusion” for “MUSK”, “v1 (purified from BA/F3 cells expressing EML4-ALK fusion protein v1)” for “(Carna Biosciences Inc., Japan)”, “100” for “10”
N-terminally FLAG-tagged EML4-ALK fusion protein v1 was inserted into a vector pMX-iresCD8 capable of co-expression of insert cDNA and cell surface antigen CD8 (J. Biol. Chem., 2001, vol. 276, p. 39012-39020) to create a vector FLAG-EML4-ALKv1/pMX-iresCD8 expressing both FLAG-EML4-ALKv1 and CD8. FLAG-EML4-ALKv1/pMX-iresCD8 was used to create a recombinant retrovirus in the same manner as described above and infected into mouse lymphoid cell line BA/F3 cells. Using a magnetic bead reagent for cell separation and a purification column (anti-CD8 monoclonal antibody immobilized on magnetic beads and a MiniMACS purification column; both are products of Miltenyi Biotec Inc.), cell surface CD8-expressing cells were purified conveniently. […] After washing 3 times with PBS, the cells were lysed in a lysis solution (50 mM Tris.HCl (pH 7.4), 150 mM NaCl, 1% Triton X100, 5 mM EDTA, 5 mM EGTA, 1 mM NaVO4, 1 mM DTT and protease inhibitor cocktail complete). The EML4-ALK fusion protein v1 present in the supernatant obtained after centrifugation was purified using ANTI-FLAG M2 Affinity Gel (SIGMA-ALDRICH Inc.) according to the method described in the product information document.
The EML4-ALK fusion protein v1 purified as above was investigated for its phosphorylation activity toward a peptide substrate using a kinase activity detection kit (HTRF KinEASE-TK; Cisbio Inc.). Using TK substrate 1, which was included in the kit, as the substrate, and after adding no ATP or 100 μM ATP, the mixtures were reacted at room temperature for 1 hour, and the count of HTRF was detected as recommended by the Kits manufacturer.

## COc1cc(N2CCC(N3CCN(C)CC3)CC2)ccc1Nc1ncnc(Nc2ccccc2S(=O)(=O)C(C)C)n1 [Example 23]
[1]
  IC50: 1500 nM
[2]
  IC50: 120 nM
[3]
  IC50: 17 nM

## CCNS(=O)(=O)c1ccccc1Nc1ncnc(Nc2ccc(N3CCC(N4CCN(C)CC4)CC3)cc2OC)n1 [Example 123]
[1]
  IC50: 1100 nM
[2]
  IC50: 100 nM
[3]
  IC50: 33 nM
